{"source": "patent US8795633B2", "about": "“Multiphoton in vivo flow cytometry method and device” (Purdue Research Foundation, priority 2005, dated 2014)", "key": {"[1]": {"molecular_target": "T1, cell surface folate receptors (Mus musculus, UniProt P35846)", "T1 construct": "cell surface folate receptors on folate receptor positive M109 cells in culture; endogenous in cells; host or cells: M109 cells", "T1 sequence (P35846 25-232)": "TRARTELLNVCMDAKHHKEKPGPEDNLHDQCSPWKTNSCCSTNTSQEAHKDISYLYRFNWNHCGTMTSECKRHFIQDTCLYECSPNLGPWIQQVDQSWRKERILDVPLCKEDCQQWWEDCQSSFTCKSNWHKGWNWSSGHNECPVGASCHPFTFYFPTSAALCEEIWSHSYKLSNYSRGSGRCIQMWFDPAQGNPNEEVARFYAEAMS", "assay": "Fluorescence measurement of binding to folate receptor positive M109 cells in culture", "experimental": "Texas Red C2-maleimide (Molecular Probes, Eugene, Oreg.) was dissolved in dimethyl sulfoxide (DMSO) (1 mg in 200 μl DMSO). A 1.4 molar equivalent (1 mg) of Folate-Cys was added to the solution and mixed for 4 hours at room temperature. Folate-Cys-Texas Red (Folate-Texas Red) was purified by reverse-phase HPLC on a C18 column at a flow rate of 1 ml/min. The mobile phase, consisting of 10 mM NH4HCO3 buffer, pH 7.0 (eluent A) and acetonitrile (eluent B), was maintained at a 99:1 A:B ratio for the first five minutes and then changed to 70:30 A:B in a linear gradient over the next 30 minutes followed by a 1:99 A:B linear gradient over the last 15 minutes. Folate-Cys-Texas Red eluted as two isomer peaks at 44.5 and 45.8 minutes. The product was confirmed by mass spectroscopy and the biologic activity was confirmed by fluorescence measurement of its binding to cell surface folate receptors on folate receptor positive M109 cells in culture."}, "Yersinia enterocolitica": {"test_system": "Yersinia enterocolitica", "assay": "FACS analysis of desferrioxamine fluorescein binding and competition", "experimental": "(§1) This procedure applies to Examples 25-27. For cell sorting assays, iron limited conditions were maintained by addition of dipyridyl to the culture (final concentration of […]). Cells were grown to mid-log phase (NB or LB broth), the siderophore conjugates added to 10-20 million CFU of bacterial cells to a final siderophore conjugate concentration of 2-3 uM (total volume=11 mL), and incubated for a period of 30 minutes. Competition was performed by adding a 100-fold excess of desferrioxamine (Yersinia) or pyoverdine PaA (Pseudomonas) to the cells 15 minutes prior to incubation with the siderophore conjugates. Fluorescently activated cell sorting (FACS) was performed on a FACS Caliber (BD Bio systems, Franklin Lakes, N.J.) cell sorter with both the forward scatter and side scatter in the log mode per manufactures guidelines for analyzing bacteria. Bacteria samples were diluted with PBS to achieve 200-400 counts per second.\nIn this case, fluorescence shift indicates binding of the fluorescein conjugate to the siderophore receptor on the bacterial surface; whereas, adding excess non-labeled ligand (competition) reduces the number of free binding sites prior to conjugate incubation. […] It is interesting to note that this compound was iron unloaded and thus consistent with unloaded siderophore binding reported by Schalk et al., Mol. Microbiol. 39: 351-360 (2001)."}, "Pseudomonas aeruginosa": {"test_system": "Pseudomonas aeruginosa", "assay": "FACS analysis of pyoverdine peptide fluorescein binding and competition", "settings": "0.1 μM conjugate; 100-fold excess free pyoverdine", "experimental": "The x-axis indicates fluorescence intensity.\nas §1\nCell studies using FACS analysis and Pseudomonas aeruginosa were performed essentially as described under Example 25 (see FIG. 10) to assess binding and competition of this molecule (concentrations ranged from 1 μM to 1 nM)."}}, "note": "*1 amine or outer side, *2 acyl side, *3 side chain or, on linkers, in order; H or OH if unused. Where a SMILES comes first, the peptide text is derived from it. Bridges are numbered along the chain shown (N, C = ends). [ ]: non-standard residue; d: D form. The star is where a group is joined. ξ: configuration not given here. X1 = O=C(O)CNC(=O)C(CCCCNC(=S)Nc1ccc(-c2c3ccc(=O)cc-3oc3cc(O)ccc23)c(C(=O)O)c1)N*; X2 = O=C(C1CCN[c+]2c(N[*:1])cc3cc(O)c(O)cc3n21)[*:2]; ξOrn(N(OH)CHO) = NC(CCCN(O)C=O)C(=O)O; Glutaryl = O=C(CCCC(=O)[*:2])[*:1]", "data": [{"smiles": "Nc1nc2ncc(CNc3ccc(C(=O)NC(CCC(=O)NC(CSC4CC(=O)N(CCNS(=O)(=O)c5ccc(C6=c7cc8c9c(c7Oc7c6cc6c%10c7CCCN%10CCC6)CCC[N+]=9CCC8)c(S(=O)(=O)[O-])c5)C4=O)C(=O)O)C(=O)O)cc3)nc2c(=O)[nH]1", "note": "(stereo not shown) [Folate-Cys-Texas Red]", "values": [{"measurement": "biologic activity (binding to cell surface folate receptors)", "setting": "[1]", "value": "confirmed"}]}, {"smiles": "CC(=O)N(O)CCCCCNC(=O)CCC(=O)NCCCCCNC(=O)CCC(=O)N(O)CCCCCNC(=S)Nc1ccc(-c2c3ccc(=O)cc-3oc3cc(O)ccc23)c(C(=O)O)c1", "note": "[desferrioxamine fluorescein]", "values": [{"measurement": "shift in fluorescence intensity with competition", "setting": "Yersinia enterocolitica; competition with a 100-fold excess of desferrioxamine", "value": 15, "unit": "%"}, {"measurement": "shift in fluorescence intensity", "setting": "Yersinia enterocolitica; non-competed, 2 μM conjugate concentration, non-incubated control 1%", "value": "~50", "unit": "%"}]}, {"smiles": "CC(O)C1NC(=O)C(CCCN(O)C=O)NC(=O)C(NC(=O)C(CCCN(O)C=O)NC(=O)C(CO)NC(=O)C(CCCNC(=N)N)NC(=O)C(CO)NC(=O)C2CCN[c+]3c(NC(=O)CCCC(=O)NC(CCC(=O)O)C(=O)NC(CCCCNC(=S)Nc4ccc(-c5c6ccc(=O)cc-6oc6cc(O)ccc56)c(C(=O)O)c4)C(=O)NCC(=O)O)cc4cc(O)c(O)cc4n32)CCCCNC(=O)C(C(C)O)NC1=O", "note": "(stereo not shown) [Pyoverdine Peptide Fluorescein] ({X1-Glu-Glutaryl}-[X2]SRS[ξOrn(N(OH)CHO)]K[ξOrn(N(OH)CHO)]TT; lactam 6-C; configuration not given here)", "values": [{"measurement": "binding and competition", "setting": "Pseudomonas aeruginosa", "value": "competition using free pyoverdine was detected"}]}]}
